In patent publication US20200281928A1, “VITAMIN B1 IN HIGH DOSES FOR USE IN THE MEDICAL TREATMENT OF MOTOR SYMPTOMS OF SOME SPORADIC NEURODEGENERATIVE DISEASES, OF GENETIC ORIGIN, AND OF CLUSTER HEADACHE AND OF MIGRAINE HEADACHE” (priority 2017, published 2020):
Like-named read-outs stand apart in the source and are kept apart here.

Experiments:
Dystonia 1 (DYT1) = details: for Fahn-Mardsen motion scale after treatment: scale 0-120; for Fahn-Mardsen disability scale after treatment: scale 0-30
Protocol: The studied patients were two, a person and a person, parent and child. The disease is genetic and has a transmission of dominant type. The diagnosis was made in primary neurological centres based upon anamnestic, clinical and laboratory data.
They were evaluated with Fahn-Mardsen scale of dystonia (Fahn-Mardsen Rating Scale). This scale consists of two sub-scales: 1) motion scale 2) disability scale. The first one ranges from 0 (no motion disorder) to 120 (maximum intensity and extension of the motion dystonic disorder). The second one ranges from 0 (no disability) to 30 (maximum disability)

Huntington's Chorea = details: one patient, two vials intramuscularly 100 mg/ml per week, two months
Protocol: We evaluated and treated one single patient. The disease is genetic and it has dominant transmission. The diagnosis was made in primary neurological centres based upon anamnestic, clinical and laboratory data. […] The first symptoms appeared about six years ago.
The patient, 56 years […], was evaluated with Unified Huntington's Disease Rating Scale (UHDRS). The scale consists of 31 items and ranges from 0 scores (absence of choreic motions) to 124 scores (maximum intensity and extension on the body of the involuntary motions of choreic type).
The first evaluation, before treatment was performed on Jun. 7, 2016, the second one, after two months of treatment with two vials intramuscularly 100 mg/ml per week was performed on Sep. 9, 2016.

[1] = tested on: Sporadic spinocerebellar ataxia; details: for Improvement of motor symptoms: SARA, two months of therapy; for SARA scale after therapy: two vials of thiamine 100 mg/ml twice a week, two months, scale 0-40
Protocol: The diagnosis was made by exclusion, by excluding the genetic forms of spino cerebellar ataxia and the tumour secondary forms.
The patients were evaluated with SARA (Scale for Assessment and Rating of Ataxia), scale validated for all disorders of cerebellar type. The score of this scale ranges from 0 (absence of symptoms) to 40 (maximum deficit).
The diagnoses were made by Italian primary neurological centres based upon the anamnestic, clinical, evolutionary, neuroradiological and neurophysiological and molecular chemistry data.

[2] = tested on: Cluster Headache (also called Horton headache); details: person
Protocol: The patient was evaluated with Cluster Headache Quality of Life (CHQ) scale before starting the treatment and every 15 days after starting the treatment which started in December 2016. The score of this scale ranges from 28 (absence of symptoms) to 140 (maximum deficit, maximum negative influence in daily life activities).
The patient started the therapy with 250 mg of thiamine orally, by increasing by 250 mg every three days.

[3] = patient P1, two months of treatment
[4] = patient P2, two months of treatment
[5] = patient P2, two months of treatment, before treatment 4

Cc1ncc(C[n+]2csc(CCO)c2C)c(N)n1 [vitamin B1, thiamine]
improvement of disability scale (Dystonia 1 (DYT1); [3]): 35.8% | improvement of motion scale (Dystonia 1 (DYT1); [3]): 53.0% | Fahn-Mardsen motion scale after treatment (Dystonia 1 (DYT1); patient P1, two months of treatment (dose not given), before treatment 66): 31 scores | Fahn-Mardsen disability scale after treatment (Dystonia 1 (DYT1); patient P1, two months of treatment, before treatment 14): 9 scores | improvement of disability scale (Dystonia 1 (DYT1); [4]): 50.0% | improvement of motion scale (Dystonia 1 (DYT1); [4]): 50.0% | Fahn-Mardsen disability scale after treatment (Dystonia 1 (DYT1); [5]): 2 scores | Fahn-Mardsen motion scale after treatment (Dystonia 1 (DYT1); [5]): 2 scores | improvement of UHDRS (Huntington's Chorea): 27.5% | UHDRS after treatment (Huntington's Chorea; before treatment 62, scale 0-124): 45 scores | Improvement of motor symptoms ([1]; patient N1 (person nine)): 33.4% | SARA scale after therapy ([1]; patient N1 (person nine), before therapy 9): 6 scores | Improvement of motor symptoms ([1]; patient N2 (person four)): 50.0% | SARA scale after therapy ([1]; patient N2 (person four), before therapy 6): 3 scores | time from the beginning until the headache attacks wholly disappeared ([2]; at the dose of 750 mg per day orally, printed as within about 8 days): ≤ 8 days | effect of an attempt of interrupting the treatment ([2]; oral thiamine interrupted): quick re-appearance of headache episodes | outcome of symptoms under continued treatment ([2]; oral thiamine, maintained by continuing the treatment (more than five months)): complete regression of the symptoms | CHQ after treatment ([2]; thiamine orally, 250 mg increased by 250 mg every three days to 750 mg per day, after 15 days, before treatment 82, scale 28 (absence of symptoms) to 140): 28 scores
